Results on 17 molecules are retold here after US20250145628A1, “PYRAZOLOPYRIMIDINES, COMPOSITIONS COMPRISING THEM AND USES THEREOF” (Novo Nordisk A/S, priority 2022, published 2025).

The target of test [1] is T1, human CB1 receptor (Homo sapiens, UniProt P21554).
T1 construct: expressed in transfected cells; host or cells: HEK293
Put plainly: bioSensAll GAPL-Gi2 BRET biosensor assay (antagonism of CP-55,940). The class given is cell-based. As to conditions: HEK293 cells transfected with hCB1 and GAPL-Gi2 biosensor, EC75 of CP-55,940 (0.1 nM), overnight incubation, read-out: CB1 wt Gi2 IC50. Here is the method:
(§1) Using polyethylenimine (PEI) transfection agent, HEK293 cells were transfected in suspension with the human CB1 or CB1b receptor and one of the following bioSensAll® assays: GAPL-Gi2, or β-arrestin plasma membrane (PM) translocation biosensor (+GRK2). Cells were directly seeded in 96-well plates immediately following transfection.
(§2) Cells were incubated with coelenterazine (luciferase substrate) and different test compounds prior to the measurement of BRET signals.
i) GAPL sensors are used to monitor the activation of heterotrimeric G proteins at the plasma membrane upon receptor stimulation. Specifically, these multimolecular BRET sensors detect the plasma membrane recruitment of proteins that interact with active Ga subunits in a G protein family-selective manner. G protein activation following receptor stimulation generally leads to an increase in the BRET signal.
(§3) HEK293 cells were maintained in Dulbecco's Modified Eagle Medium (DMEM) (Wisent; cat #319-030-CL: without sodium pyruvate, with 4.5 g/L glucose, without L-glutamine) supplemented with 1% penicillin-streptomycin (Wisent; cat #450-201-EL) and 2 or 10% fetal bovine serum (Wisent cat #090150).
(§4) HEK293 cells were co-transfected with hCB1 or hCB1b and one of the above-listed bioSensAll® assays. For each transfection condition: • the total amount of transfected DNA was kept constant at 1 μg per mL of cell culture to be transfected; whenever necessary, salmon sperm DNA (Invitrogen, cat #15632011) was used as ‘carrier’ DNA to supplement plasmid DNA (i.e., biosensor and receptor); • the PEI (polyethylenimine 25 kDa linear, PolyScience, cat #23966) to DNA ratio (ug:ug) was fixed at 3:1.
(§5) Transfections were carried out as follows: • DNA and PEI were first diluted separately in 150 mM NaCl. The volume of the diluent in each tube corresponds to 5% of the cell culture volume to be transfected. • Once DNA and PEI were diluted, the PEI-containing solution was added to the DNA solution and the DNA/PEI mixture immediately vortexed for 5 seconds. • The DNA/PEI mixture was incubated for at least 20 minutes at room temperature to allow for the formation of DNA/PEI complexes. • During the incubation, HEK293 cells were detached, counted and re-suspended in culture medium (composition specified above). • At the end of the incubation period, the DNA/PEI mixture was added to the cells. • Cells were finally distributed in 96-well plates (White Opaque 96-well/Microplates, Greiner, cat #655083 or CulturPlate-96, White Opaque 96-well Microplate, PerkinElmer, cat #6005688) at a density of 30 000 cells per well.
(§6) At ˜48 hours post-transfection: • Using 450-Select TS Biotek plate washer, culture medium was aspirated and replaced with 100 μl of Hank's Balanced Salt Solution buffer (HBSS) (Wisent, cat #319-067CL: without red phenol; with sodium bicarbonate, with calcium and magnesium, with HEPES) per well. This process was performed a total of two times (i.e., 2 washes). • After the washing step, the HP D300 digital dispenser (Tecan) was used to inject increasing doses (12) of test compounds (ranging from 0-600 nM) to wells. Three to five minutes later, an EC75 of CP-55,940 (0.1 nM for GAPL-Gi2 assay; 100 nM for β-arrestin PM translocation biosensor (+GRK2)) was added to columns 2-12 of each 96-well plate.
(§7) BRET signals were determined by calculating the ratio of light emitted by GFP-acceptor (515 nm) over light emitted by luciferase-donor (400 nm). All BRET ratios were standardized using the equation below with pre-established BRET values for positive and negative controls. The standardized BRET ratio is referred to as universal BRET (uBRET).
(§8) Resulting dose-response curves were fitted using the four-parameter logistic non-linear regression model in GraphPad Prism 9.
(Bioluminescence resonance energy transfer reports proximity on the nanometre scale.)

The target in test [2] is T1, human CB1 receptor. Put plainly: bioSensAll β-arrestin plasma membrane translocation BRET biosensor (+GRK2) assay (antagonism of CP-55,940). It is filed as cell-based. As to conditions: HEK293 cells transfected with hCB1 and β-arrestin PM translocation biosensor (+GRK2), EC75 of CP-55,940 (100 nM), overnight incubation, read-out: CB1 wt βarr2 IC50. On the procedure:
as §1, §2
ii) The multimolecular β-arrestin membrane recruitment biosensors allow for real-time spatio-temporal monitoring of β-arrestin 1 and β-arrestin 2 following GPCR activation. Specifically, these β-arrestin sensors were designed to detect the recruitment of proteins to the plasma membrane (β-arrestin PM) with localization to compartment resulting in an increased BRET signal.
as §3, §4, §5, §6, §7, §8

The structures appear in SMILES notation. Bounds are passed on as bounds.

T1 sequence (P21554 whole entry): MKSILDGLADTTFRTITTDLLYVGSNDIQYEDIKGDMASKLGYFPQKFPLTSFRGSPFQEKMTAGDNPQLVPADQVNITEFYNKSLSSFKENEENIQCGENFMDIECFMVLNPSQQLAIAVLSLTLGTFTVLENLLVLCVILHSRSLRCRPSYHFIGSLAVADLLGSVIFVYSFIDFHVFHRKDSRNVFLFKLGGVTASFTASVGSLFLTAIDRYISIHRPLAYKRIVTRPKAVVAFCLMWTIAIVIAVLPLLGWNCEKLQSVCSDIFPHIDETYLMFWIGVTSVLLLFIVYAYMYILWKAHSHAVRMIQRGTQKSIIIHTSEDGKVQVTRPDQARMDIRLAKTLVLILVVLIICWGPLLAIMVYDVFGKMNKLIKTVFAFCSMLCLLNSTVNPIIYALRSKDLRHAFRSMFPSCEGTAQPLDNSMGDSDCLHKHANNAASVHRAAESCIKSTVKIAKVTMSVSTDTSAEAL

On to `O=S1(=O)CCC(Nc2cc(N3CCC[C@H]3CO)nc3c(-c4ccc(Cl)cc4)c(-c4ccccc4Cl)nn23)CC1` [Compound 11, [(2S)-1-[2-(2-chlorophenyl)-3-(4-chlorophenyl)-7-[(1,1-dioxothian-4-yl)amino]pyrazolo[1,5-a]pyrimidin-5-yl]pyrrolidin-2-yl]methanol], for which the figures for the IC50 on human CB1 receptor [1] and at human CB1 receptor [2] were 0.481 nM and 1.33 nM, respectively.

`CC(C)OC1(C(N)=O)CCN(c2cc(OCC(C)(C)O)nc3c(-c4ccc(Cl)cc4)c(-c4ccc(C#N)nc4)nn23)CC1` [Compound 63]: the IC50 (in general, the midpoint of a concentration-inhibition curve) at human CB1 receptor [1] is 0.9 nM; at human CB1 receptor [2], 1.62 nM.

As to `CN(CC(C)(C)O)c1cc(-c2ccc(C(F)(F)F)nc2)n2nc(-c3ccc(C(N)=O)nc3)c(-c3ccc(Cl)cc3)c2n1` [Compound 64, 5-[3-(4-chlorophenyl)-5-[(2-hydroxy-2-methyl-propyl)-methyl-amino]-7-[6-(trifluoromethyl)-3-pyridyl]pyrazolo[1,5-a]pyrimidin-2-yl]pyridine-2-carboxamide], the values for the IC50 at human CB1 receptor [1] and on human CB1 receptor [2] were 1.25 nM and 2.95 nM, respectively.

Consider `CN(C)C(=O)CN(C)c1cc(N2CCC[C@@H](C(N)=O)C2)n2nc(-c3ccccc3Cl)c(-c3ccc(Cl)cc3)c2n1` [Compound 29, (3R)-1-[2-(2-chlorophenyl)-3-(4-chlorophenyl)-5-[[2-(dimethylamino)-2-oxo-ethyl]-methyl-amino]pyrazolo[1,5-a]pyrimidin-7-yl]piperidine-3-carboxamide], for which the IC50 at human CB1 receptor [1] came to 34.8 nM; at human CB1 receptor [2], 114 nM.

`CCNC1(C(N)=O)CCN(c2cc(N3CCC[C@H]3CO)nc3c(-c4ccc(Cl)cc4)c(-c4ccccc4Cl)nn23)CC1` [Compound 1, 1-[2-(2-chlorophenyl)-3-(4-chlorophenyl)-5-[(2S)-2-(hydroxymethyl)pyrrolidin-1-yl]pyrazolo[1,5-a]pyrimidin-7-yl]-4-(ethylamino)piperidine-4-carboxamide]: the IC50 turned out to be 1.2 nM at human CB1 receptor [1] and 4.31 nM at human CB1 receptor [2].

Take `CN(CCC(N)=O)c1cc(N2CC(CC(N)=O)C2)n2nc(-c3ccccc3Cl)c(-c3ccc(Cl)cc3)c2n1` [Compound 24, 3-[[7-[3-(2-amino-2-oxo-ethyl)azetidin-1-yl]-2-(2-chlorophenyl)-3-(4-chlorophenyl)pyrazolo[1,5-a]pyrimidin-5-yl]-methyl-amino]propanamide]: the IC50 at human CB1 receptor [1] is 14.6 nM; at human CB1 receptor [2] it was 94.6 nM.

Regarding `CC(C)OC1(C(N)=O)CCN(c2cc(OCC(C)(C)O)nc3c(-c4ccc(Cl)cc4)c(-c4ccccc4Cl)nn23)CC1` [Compound 57, 1-[2-(2-chlorophenyl)-3-(4-chlorophenyl)-5-(2-hydroxy-2-methyl-propoxy)pyrazolo[1,5-a]pyrimidin-7-yl]-4-isopropoxy-piperidine-4-carboxamide], the IC50 at human CB1 receptor [1] was found to be 1.04 nM; at human CB1 receptor [2] it was 2.86 nM.

Consider `CCNC(=O)CN(C)c1cc(N2CC(OCC(N)=O)C2)n2nc(-c3ccccc3Cl)c(-c3ccc(Cl)cc3)c2n1` [Compound 69, 2-[[7-[3-(2-amino-2-oxo-ethoxy)azetidin-1-yl]-2-(2-chlorophenyl)-3-(4-chlorophenyl)pyrazolo[1,5-a]pyrimidin-5-yl]-methyl-amino]-N-ethyl-acetamide], for which the values for the IC50 on human CB1 receptor [1] and at human CB1 receptor [2] were 3910 nM and over 30000 nM, respectively.

As for `CC(C)(O)COc1cc(N2CCN(S(=O)(=O)C(F)(F)F)CC2)n2nc(-c3ccc(C#N)nc3)c(-c3ccc(Cl)cc3)c2n1` [Compound 53, 5-[3-(4-chlorophenyl)-5-(2-hydroxy-2-methyl-propoxy)-7-[4-(trifluoromethylsulfonyl)piperazin-1-yl]pyrazolo[1,5-a]pyrimidin-2-yl]pyridine-2-carbonitrile], the concentration for half-maximal inhibition (IC50) on human CB1 receptor [1] was 1.07 nM; on human CB1 receptor [2], 1.24 nM.

For `COC1(C)CN(c2cc(OCC(C)(C)O)nc3c(-c4ccc(Cl)cc4)c(-c4ccc(C#N)nc4)nn23)C1` [Compound 52, 5-[3-(4-chlorophenyl)-5-(2-hydroxy-2-methyl-propoxy)-7-(3-methoxy-3-methyl-azetidin-1-yl)pyrazolo[1,5-a]pyrimidin-2-yl]pyridine-2-carbonitrile], the IC50 at human CB1 receptor [1] was 1.47 nM; on human CB1 receptor [2], 2.56 nM.

On to `CN(CP(C)(C)=O)c1cc(N2CC(CC(N)=O)C2)n2nc(-c3ccccc3Cl)c(-c3ccc(Cl)cc3)c2n1` [Compound 33, 2-[1-[2-(2-chlorophenyl)-3-(4-chlorophenyl)-5-[dimethylphosphorylmethyl(methyl)amino]pyrazolo[1,5-a]pyrimidin-7-yl]azetidin-3-yl]acetamide], for which the IC50 at human CB1 receptor [1] is over 10000 nM; on human CB1 receptor [2] it was 116 nM.

`CNC(=O)CCN(C)c1cc(N2CC(CC(N)=O)C2)n2nc(-c3ccccc3Cl)c(-c3ccc(Cl)cc3)c2n1` [Compound 39, 3-[[7-[3-(2-amino-2-oxo-ethyl)azetidin-1-yl]-2-(2-chlorophenyl)-3-(4-chlorophenyl)pyrazolo[1,5-a]pyrimidin-5-yl]-methyl-amino]-N-methyl-propanamide]: the IC50 on human CB1 receptor [1] stood at 34.4 nM; at human CB1 receptor [2], 107 nM.

Take `NC(=O)CC1CN(c2cc(N3CCC[C@H]3C(N)=O)nc3c(-c4ccc(Cl)cc4)c(-c4ccccc4Cl)nn23)C1` [Compound 35, (2S)-1-[7-[3-(2-amino-2-oxo-ethyl)azetidin-1-yl]-2-(2-chlorophenyl)-3-(4-chlorophenyl)pyrazolo[1,5-a]pyrimidin-5-yl]pyrrolidine-2-carboxamide]: the IC50 at human CB1 receptor [1] is 158 nM; at human CB1 receptor [2], over 10000 nM.

For `CCNC(=O)CN(C)c1cc(N2CC[C@H](CC(N)=O)C2)n2nc(-c3ccccc3Cl)c(-c3ccc(Cl)cc3)c2n1` [Compound 36, 2-[(3R)-1-[2-(2-chlorophenyl)-3-(4-chlorophenyl)-5-[[2-(ethylamino)-2-oxo-ethyl]-methyl-amino]pyrazolo[1,5-a]pyrimidin-7-yl]pyrrolidin-3-yl]acetamide], the IC50 is 150 nM on human CB1 receptor [1] and 325 nM at human CB1 receptor [2].

`C[C@@H](O)COc1cc(-c2ccc(C(F)(F)F)nc2)n2nc(-c3ccccc3Cl)c(-c3ccc(Cl)cc3)c2n1` [Compound 70(R)]: the IC50 at human CB1 receptor [1] turned out to be 1.11 nM; on human CB1 receptor [2], 2.78 nM.

On to `CCOC1(C(N)=O)CCN(c2cc(N(C)CC(C)(C)O)nc3c(-c4ccc(Cl)cc4)c(-c4ccccc4Cl)nn23)CC1` [Compound 44, 1-[2-(2-chlorophenyl)-3-(4-chlorophenyl)-5-[(2-hydroxy-2-methyl-propyl)-methyl-amino]pyrazolo[1,5-a]pyrimidin-7-yl]-4-ethoxy-piperidine-4-carboxamide], for which the IC50 came to 3.9 nM at human CB1 receptor [1] and 14.3 nM at human CB1 receptor [2].

Consider `CN(CC1COC(C)(C)OC1)c1cc(N2CCC(C)(C(N)=O)CC2)n2nc(-c3ccccc3Cl)c(-c3ccc(Cl)cc3)c2n1` [Compound 62, 1-[2-(2-chlorophenyl)-3-(4-chlorophenyl)-5-[(2,2-dimethyl-1,3-dioxan-5-yl)methyl-methyl-amino]pyrazolo[1,5-a]pyrimidin-7-yl]-4-methyl-piperidine-4-carboxamide], for which the IC50 was 7610 nM at human CB1 receptor [1] and over 30000 nM on human CB1 receptor [2].
